The record followed here is patent US20190151283A1, “NON-STEROIDAL SELECTIVE GLUCOCORTICOID RECEPTOR AGONISTIC MODULATORS (SEGRAMs) AND USES THEREOF” (ASSOCIATION POUR LA RECHERCHE À L'IGBMC (ARI), priority 2017, published 2019).

Holding throughout (type): in vivo, mouse
In data set [1] the test system is Balb/C mice. Briefly: Skin atrophy after 8-day topical treatment of dorsal skin. The note with it: for epidermal thickness / skin atrophy, histological analysis: eight-day topical treatment; for epidermal thickness: morphometric analysis; for transcription of the REDD1 gene in dorsal skin: topical 8 days, 1 nmole/cm^2, 'but not' = not increased; for skin atrophy, histological analysis: 'in marked contrast' = no severe atrophy as with Dex. An excerpt: To investigate whether, similarly to Dex, a topical administration of CpdX could result in a skin atrophy, Balb/C mice were shaved on the dorsal skin. Ethanol (vehicle), Dex, CpdX or either one of its two enantiomers CpdX(eA) or CpdX(eB), as well as the deuterated form CpdX-D3 or either one of its two enantiomers CpdX-D3(eA) or CpdX-D3(eB), were topically applied onto the dorsal skin for 8 days.
Upon completion of the treatments, RNA transcripts were extracted from dorsal skin samples and the transcripts of Kindlin-1 and REDD1 genes were analyzed by q-RT-PCR. Histological and morphometric analyses of the dorsal skin were also performed.

The subject of data set [2] is B6 male mice. Briefly: Blood glucose and intraperitoneal glucose tolerance test after three-month treatment. The note with it: for control of the blood glucose level: three months, conclusion; for blood glucose level in intraperitoneal glucose tolerance test (IPGTT): two-hour period after glucose i.p. injection ([…] body weight). The procedure:
B6 male mice (8-week-old) were daily subjected for three months to a subcutaneous injection of either vehicle (NaCl 0.9%), Dex, CpdX, CpdX(eA), CpdX(eB), CpdX-D3, CpdX-D3(eA) or CpdX-D3(eB) (1 mg/kg body weight, diluted in vehicle). Mice were over-night-fasted. Mouse blood glucose concentration was measured before (T0) and during two hours (T120) after glucose i.p. injection ([…] body weight).

The test system of data set [3] is Balb/C mice. Briefly: Dextran sodium sulfate (DSS)-induced ulcerative colitis. The note with it: for pro-inflammatory genes overexpressed in DSS-induced ulcerative colitis (IL-1β, IL-6, IL-17a, IL-17f, TSLP, MMP13): colon, q-RT-PCR, D14; for colonic villus/crypt structure / mucosal and submucosal cell infiltration: i.p. 1 mg/kg on D11, D12, D13, H&E histology. As to the method:
To investigate the anti-inflammatory activity of CpdX and CpdX-D3 on a Th17 ulcerative colitis, Balb/C mice were treated with 3% DSS in drinking water for 13 days, with or without an intraperitoneal administration of either Dex, CpdX, CpdX(eA), CpdX(eB), CpdX-D3, CpdX-D3(eA) or CpdX-D3(eB) (1 mg/kg of body weight) on D11, D12 and D13.
At D14, RNA transcripts were extracted from mouse colons. IL-1β, IL-6, IL-17a, IL-17f, TSLP and MMP13 transcripts were analyzed by q-RT-PCR. Colon samples were also harvested for histological analyses (with H&E staining).

Data set [4] concerns B6 male mice. Briefly: Insulin level, insulin tolerance test and liver insulin signalling after three-month treatment. Conditions: for insulin resistance: three months, conclusion; for phosphorylated insulin receptor substrate 1 (p-IRS1 S318) in liver extracts: western-blot, 'but not' = no decrease. As to the method: B6 male mice (8-week-old) were subjected daily for three months to a subcutaneous injection of either vehicle (NaCl 0.9%), Dex, CpdX, CpdX(eA), CpdX(eB), CpdX-D3, CpdX-D3(eA) or CpdX-D3(eB) (1 mg/kg body weight, diluted in vehicle). After three months, the blood was collected at 10 a.m. by retro-orbital puncture in lithium-heparin coated vials, and the plasmatic level of insulin was determined.
For the intraperitoneal insulin tolerance test (IPITT), mice were fasted for 6 hours before test. The blood glucose concentration was measured both before (T0) and during a one-hour period after insulin i.p. injection (0.75 U/kg body weight).
Following this three-month treatment, liver samples were harvested and lysed in the RIPA buffer (20 mM Tris pH 8, 150 mM NaCl, 10% glycerol, 1% NP-40 and 2 mM EDTA). Antibodies from Cell Signaling were used to assess by Western-Blotting the relative level of p-IRS1 (S318), IRS-1, p-AKT (S473) and AKT.

Data set [5] relates to Balb/C mice. Briefly: Ovalbumin (OVA)-induced allergic conjunctivitis. Conditions: 0.1% instillation D22 to D24, 20 minutes after the last OVA challenge. As to the method:
To investigate the anti-inflammatory effect of CpdX or CpdX-D3 on an allergic conjunctivitis, Balb/C mice were intraperitoneally sensitized with 50 μg OVA with alum on both days D1 and D8, and then challenged from D15 to D21 with 250 μg OVA in 5 μL of sterilized vehicle (0.9% NaCl), which were directly instilled onto the conjunctival sac. From D22 to D24, mice were divided into several groups, and received instillations with either OVA alone, OVA together with 0.1% of either Dex, CpdX, CpdX(eA), CpdX(eB), CpdX-D3, CpdX-D3(eA) or CpdX-D3(eB).
The clinical appearance of mouse eyes was evaluated 20 minutes after the last instillation on D24. Clinical signs (conjunctival hyperemia, lid edema and tearing) were scored to evaluate the occurrence and severity of conjunctivitis as described by Gimenes et al. (2015. Experimental Eye Research 134:24-32). Parameters were graded on a scale ranging from 0 to 3, (0=absence, 1=mild, 2=moderate, and 3=severe symptoms), each animal receiving a total clinical score ranging from 0 to 9. The data were expressed as mean±SEM with at least four mice per treatment.

The subject of data set [6] is B6 male mice. The experiment in a line: Organ weights (thymus, spleen, adrenal gland, kidney) after three-month treatment. The note with it: s.c. 1 mg/kg daily, three months. As to the method: B6 male mice (8-week-old) were daily subjected for three months to a subcutaneous injection of either vehicle (NaCl 0.9%), Dex, CpdX, CpdX(eA), CpdX(eB), CpdX-D3, CpdX-D3(eA) or CpdX-D3(eB) (1 mg/kg body weight, diluted in vehicle). Following these treatments, four organs (thymus, spleen, adrenal gland and kidney) were harvested and weighted.

For data set [7], the system named is B6 male mice. The experiment in a line: Corticosterone synthesis and adrenal gland after three-month treatment. The note with it: for plasmatic corticosterone level: at 10 a.m., compared to control mice (Vehicle); for cortex layers, most notably the fasciculata zone, of the adrenal glands / glomerulosa zone of the adrenal cortex / transcripts of Cyp11a, Cyp11b1 and HSD3β genes in adrenal glands: three months; for cortex layers, most notably the fasciculata zone, of the adrenal glands / glomerulosa zone of the adrenal cortex: histology; for glomerulosa zone of the adrenal cortex: 'but not' = not decreased; for transcripts of Cyp11a, Cyp11b1 and HSD3β genes in adrenal glands: q-RT-PCR. The procedure:
B6 male mice (8-week-old) were daily subjected for three months to either a subcutaneous injection of vehicle (NaCl 0.9%), Dex, CpdX, CpdX(eA), CpdX(eB), CpdX-D3, CpdX-D3(eA) or CpdX-D3(eB) (1 mg/kg body weight, diluted in vehicle).
Following this long-term treatment, blood was collected at 10 a.m. and 6 p.m. by retro-orbital puncture in lithium-heparin coated vials, and the plasmatic level of corticosterone was determined. Adrenal glands were harvested and weighted. RNA transcripts were extracted and transcripts of the Cyp11a, Cyp11b1, Cyp11b2 and HSD3β genes were analyzed by q-RT-PCR. Histological analyses of the adrenal glands were also carried out.

For `COc1ccc(F)cc1C(C)(C)CC(O)(CNc1ccc2c(c1)COC2=O)C(F)(F)F` (single isomer, unassigned) [CpdX(eB), 5-[4-(5-fluoro-2-methoxyphenyl)-2-hydroxy-4-methyl-2-(trifluoromethyl)pentylamino]-isobenzofuran-1(3H)-one], in the data set on Balb/C mice [1], the epidermal thickness entry is recorded as “not significantly decreased” and the “transcription of the REDD1 gene in dorsal skin” value (from here on “transcription of the REDD1 gene”) was “but not”. Moreover, in the data set on B6 male mice [2], the “control of the blood glucose level” value is reported as “does not significantly affect” and the “blood glucose level in intraperitoneal glucose tolerance test (IPGTT)” value (from here on “blood glucose level … (IPGTT)”) is given as “no significant difference”. Further, in the data set on Balb/C mice [3], the “pro-inflammatory genes overexpressed in DSS-induced ulcerative colitis (IL-1β, IL-6, IL-17a, IL-17f, TSLP, MMP13)” value (“pro-inflammatory genes overexpressed” for short) is reported as “similarly repressed”; the colonic villus/crypt structure result is on record as “almost reestablished”; the “mucosal and submucosal cell infiltration” value is listed as “significantly decreased”. Besides, the insulin resistance result with B6 male mice [4] was “does not induce”. The “clinical signs of allergic conjunctivitis (conjunctival hyperemia, lid edema and tearing)” value (“clinical signs” for short) in the data set on Balb/C mice [5] is recorded as “considerably reduced”. Besides, in the data set on B6 male mice [6], the spleen weight result was “not decreased”, the “thymus apoptosis / thymus found” value is “did not result in any significant thymus apoptosis” and the “weight of the adrenal gland” value was “increased”. In the data set on B6 male mice [7], the plasmatic corticosterone level result is recorded as “much higher”; the “cortex layers, most notably the fasciculata zone, of the adrenal glands” value (“cortex layers” for short) was “markedly increased”; the “glomerulosa zone of the adrenal cortex” value was “but not”; the “transcripts of Cyp11a, Cyp11b1 and HSD3β genes in adrenal glands” value (shortened to “transcripts of Cyp11a”) is listed as “increased”.

With `[2H]C([2H])([2H])Oc1ccc(F)cc1C(C)(C)CC(O)(CNc1ccc2c(c1)COC2=O)C(F)(F)F` (racemic) [CpdX-D3, 5-{4-[2-(methoxy-D3)-5-fluorophenyl]-2-hydroxy-4-methyl-2-(trifluoro-methyl)pentylamino}isobenzofuran-1(3H)-one], in the data set with Balb/C mice [1], the epidermal thickness entry is reported as “not significantly decreased”; the “skin atrophy, histological analysis” value is reported as “in marked contrast”; the “transcription of the REDD1 gene” value is on record as “but not”. Further, in the data set with B6 male mice [2], the “control of the blood glucose level” value is “does not significantly affect” and the “blood glucose level … (IPGTT)” value was “no significant difference”. Further, in the data set with Balb/C mice [3], the “pro-inflammatory genes overexpressed” value is “similarly repressed”; the colonic villus/crypt structure result is reported as “almost reestablished”; the “mucosal and submucosal cell infiltration” value is given as “significantly decreased”. Besides, in the data set on B6 male mice [4], the insulin resistance entry is on record as “does not induce” and the “phosphorylated insulin receptor substrate 1 (p-IRS1 S318) in liver extracts” value was “but not”. Moreover, the “clinical signs” value in the data set with Balb/C mice [5] is “considerably reduced”. For the same compound, in the data set with B6 male mice [6], the spleen weight result is on record as “not decreased”, the “thymus apoptosis / thymus found” value is on record as “did not result in any significant thymus apoptosis” and the “weight of the adrenal gland” value is “increased”. Besides, in the data set with B6 male mice [7], the plasmatic corticosterone level entry is reported as “much higher”; the “cortex layers” value is recorded as “markedly increased”; the “glomerulosa zone of the adrenal cortex” value is recorded as “but not”; the “transcripts of Cyp11a” value was “increased”.

Take `COc1ccc(F)cc1C(C)(C)CC(O)(CNc1ccc2c(c1)COC2=O)C(F)(F)F` (racemic) [CpdX, 5-[4-(5-fluoro-2-methoxyphenyl)-2-hydroxy-4-methyl-2-(trifluoromethyl)pentylamino]-isobenzofuran-1(3H)-one]: in the data set with Balb/C mice [1], the epidermal thickness entry is reported as “not significantly decreased”; the “skin atrophy, histological analysis” value was “in marked contrast”; the “transcription of the REDD1 gene” value was “but not”. Moreover, in the data set on B6 male mice [2], the “control of the blood glucose level” value was “does not significantly affect” and the “blood glucose level … (IPGTT)” value was “no significant difference”. Also, in the data set with Balb/C mice [3], the “pro-inflammatory genes overexpressed” value was “similarly repressed”; the colonic villus/crypt structure entry is “almost reestablished”; the “mucosal and submucosal cell infiltration” value is given as “significantly decreased”. For the same compound, in the data set on B6 male mice [4], the insulin resistance result is reported as “does not induce” and the “phosphorylated insulin receptor substrate 1 (p-IRS1 S318) in liver extracts” value is “but not”. Moreover, the “clinical signs” value in the data set with Balb/C mice [5] was “considerably reduced”. Besides, in the data set with B6 male mice [6], the spleen weight result is given as “not decreased”, the “thymus apoptosis / thymus found” value is reported as “did not result in any significant thymus apoptosis” and the “weight of the adrenal gland” value is “increased”. In the data set with B6 male mice [7], the plasmatic corticosterone level result is “much higher”; the “cortex layers” value is “markedly increased”; the “glomerulosa zone of the adrenal cortex” value is given as “but not”; the “transcripts of Cyp11a” value is “increased”.

Turning to `[2H]C([2H])([2H])Oc1ccc(F)cc1C(C)(C)CC(O)(CNc1ccc2c(c1)COC2=O)C(F)(F)F` (centres unmarked) [CpdX-D3(eA), 5-{4-[2-(methoxy-D3)-5-fluorophenyl]-2-hydroxy-4-methyl-2-(trifluoromethyl)pentylamino}isobenzofuran-1(3H)-one], in the data set on Balb/C mice [1], the epidermal thickness entry was “not significantly decreased” and the “transcription of the REDD1 gene” value is “but not”. In addition, in the data set with B6 male mice [2], the “control of the blood glucose level” value is listed as “does not significantly affect” and the “blood glucose level … (IPGTT)” value is recorded as “no significant difference”. Also, in the data set with Balb/C mice [3], the “pro-inflammatory genes overexpressed” value was “similarly repressed”; the colonic villus/crypt structure result is “almost reestablished”; the “mucosal and submucosal cell infiltration” value is “significantly decreased”. Besides, the insulin resistance result with B6 male mice [4] is given as “does not induce”. Also, the “clinical signs” value in the data set with Balb/C mice [5] is reported as “considerably reduced”. In addition, in the data set with B6 male mice [6], the spleen weight result is “not decreased”, the “thymus apoptosis / thymus found” value is recorded as “did not result in any significant thymus apoptosis” and the “weight of the adrenal gland” value was “increased”. Besides, in the data set on B6 male mice [7], the plasmatic corticosterone level result is “much higher”; the “cortex layers” value is “markedly increased”; the “glomerulosa zone of the adrenal cortex” value is recorded as “but not”; the “transcripts of Cyp11a” value is listed as “increased”.
